Here are results for 35 compounds from ChEMBL document CHEMBL2157955, “Design, synthesis and anticancer activity of 1-acyl-3-amino-1,4,5,6-tetrahydropyrrolo[3,4-c]pyrazole derivatives” (Bioorg Med Chem Lett, 2012).

For assay [1], the system named is HCT-116. The assay is described as follows: Cytotoxicity against human HCT116 cells after 48 hrs by SRB assay. It is filed as functional, cell-based. To be noted: HCT-116, 48 h. For orientation: Sulforhodamine B stains cellular protein and so reports cell mass.
Assay [2] has as its system HT-29. The assay can be described thus: Cytotoxicity against human HT-29 cells after 48 hrs by SRB assay. Conditions: HT-29, 48 h. It is filed as functional, cell-based.
Assay [3] in a line: Cytotoxicity against human L02 cells after 48 hrs by SRB assay. To be noted: L02, 48 h. It counts as cell-based.
The test system of assay [4] is HepG2. The assay can be described thus: Cytotoxicity against human HepG2 cells after 48 hrs by SRB assay. It is filed as functional, cell-based. To be noted: HepG2, 48 h.
Assay [5] concerns MCF7. The assay can be described thus: Cytotoxicity against human MCF7 cells after 48 hrs by SRB assay. It is filed as functional, cell-based. To be noted: MCF7, 48 h.
Assay [6] concerns the target Cyclin-dependent kinase 1/cyclin B1 (Homo sapiens) (UniProt P06493+P14635). The assay is described as follows: Inhibition of human CDK1/cyclinB at 10 uM. It counts as protein-complex assay.
For assay [7], the target named is Glycogen synthase kinase-3 beta (Homo sapiens) (UniProt P49841). The assay can be described thus: Inhibition of human GSK3beta at 10 uM.
In assay [8] the target is Cyclin-dependent kinase 5/CDK5 activator 1 (Homo sapiens) (UniProt Q00535+Q15078). The assay can be described thus: Inhibition of human CDK5/p25 at 10 uM. It counts as protein-complex assay.
The target in assay [9] is Serine/threonine-protein kinase mTOR (Homo sapiens) (UniProt P42345). The assay is described as follows: Inhibition of human mTOR at 10 uM.
For assay [10], the target named is T1, Aurora kinase A (Homo sapiens) (UniProt O14965).
T1 sequence (whole entry): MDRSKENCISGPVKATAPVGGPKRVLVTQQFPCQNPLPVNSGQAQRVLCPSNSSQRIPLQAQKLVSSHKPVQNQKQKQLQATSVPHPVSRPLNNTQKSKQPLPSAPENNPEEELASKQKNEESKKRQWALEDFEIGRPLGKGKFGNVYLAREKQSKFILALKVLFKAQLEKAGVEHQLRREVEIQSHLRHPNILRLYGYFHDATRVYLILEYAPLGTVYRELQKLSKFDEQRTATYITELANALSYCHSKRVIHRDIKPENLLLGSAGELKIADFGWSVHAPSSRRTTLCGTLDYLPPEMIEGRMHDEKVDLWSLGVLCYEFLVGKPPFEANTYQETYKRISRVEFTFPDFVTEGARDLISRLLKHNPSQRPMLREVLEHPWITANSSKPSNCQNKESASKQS
The assay can be described thus: Inhibition of human Aurora A kinase at 10 uM.

The test system of assay [11] is HT-29. The assay can be described thus: Ratio of (R)-roscovitine IC50 to compound IC50 for human HT-29 cells. It is filed as functional.
In assay [12] the target is Cyclin-dependent kinase 7/ cyclin H (Homo sapiens) (UniProt P51946+P50613). The assay can be described thus: Inhibition of human CDK7/CyclinH/MAT1 at 10 uM. It counts as protein-complex assay.
Assay [13] concerns A549. The assay can be described thus: Cytotoxicity against human A549 cells after 48 hrs by SRB assay. It counts as functional, cell-based. To be noted: A549, 48 h.
In assay [14] the target is Cyclin-dependent kinase 2/cyclin E (Homo sapiens) (UniProt P24864+P24941+O96020). The assay is described as follows: Inhibition of human CDK2/cyclin E at 10 uM. It counts as protein-complex assay.
The test system of assay [15] is MCF7. The assay can be described thus: Ratio of (R)-roscovitine IC50 to compound IC50 for human MCF7 cells. It is filed as functional.
For assay [16], the target named is Epidermal growth factor receptor (Homo sapiens) (UniProt P00533). The assay is described as follows: Inhibition of human EGFR at 10 uM.
Assay [17] deals with Cyclin-dependent kinase 2/cyclin A (Homo sapiens) (UniProt P24941+P20248+P78396). The assay is described as follows: Inhibition of human CDK2/cyclin A at 10 uM. It is filed as protein-complex assay.
Assay [18] relates to HT-1080. The assay is described as follows: Ratio of (R)-roscovitine IC50 to compound IC50 for human HT1080 cells. It is filed as functional.
For assay [19], the system named is HCT-116. The assay is described as follows: Ratio of (R)-roscovitine IC50 to compound IC50 for human HCT116 cells. It counts as functional.
Assay [20] has as its system HepG2. The assay can be described thus: Ratio of (R)-roscovitine IC50 to compound IC50 for human HepG2 cells. It is filed as functional.
The test system of assay [21] is HT-1080. The assay is described as follows: Cytotoxicity against human HT1080 cells after 48 hrs by SRB assay. It is filed as functional, cell-based. Conditions: HT-1080, 48 h.
Assay [22] deals with Aurora kinase B (Homo sapiens) (UniProt Q96GD4). The assay can be described thus: Inhibition of human Aurora B kinase at 10 uM.
The target in assay [23] is CDK9/cyclin T1 (Homo sapiens) (UniProt O60563+P50750). The assay can be described thus: Inhibition of human CDK9/CyclinT1 at 10 uM. It counts as protein-complex assay.
The test system of assay [24] is A549. The assay is described as follows: Ratio of (R)-roscovitine IC50 to compound IC50 for human A549 cells. It is filed as functional.

Chain of Cyclin-dependent kinase 1/cyclin B1 (Homo sapiens) (P06493 whole entry, looked up): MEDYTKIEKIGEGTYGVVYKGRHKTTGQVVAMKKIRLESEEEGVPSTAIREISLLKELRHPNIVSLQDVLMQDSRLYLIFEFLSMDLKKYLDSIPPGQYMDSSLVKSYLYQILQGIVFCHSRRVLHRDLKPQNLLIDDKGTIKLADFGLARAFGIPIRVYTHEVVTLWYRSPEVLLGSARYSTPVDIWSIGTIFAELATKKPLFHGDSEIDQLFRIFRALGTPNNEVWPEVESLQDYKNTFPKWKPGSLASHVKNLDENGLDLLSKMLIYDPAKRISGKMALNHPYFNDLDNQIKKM
Chain of Cyclin-dependent kinase 1/cyclin B1 (Homo sapiens) (P14635 whole entry, looked up): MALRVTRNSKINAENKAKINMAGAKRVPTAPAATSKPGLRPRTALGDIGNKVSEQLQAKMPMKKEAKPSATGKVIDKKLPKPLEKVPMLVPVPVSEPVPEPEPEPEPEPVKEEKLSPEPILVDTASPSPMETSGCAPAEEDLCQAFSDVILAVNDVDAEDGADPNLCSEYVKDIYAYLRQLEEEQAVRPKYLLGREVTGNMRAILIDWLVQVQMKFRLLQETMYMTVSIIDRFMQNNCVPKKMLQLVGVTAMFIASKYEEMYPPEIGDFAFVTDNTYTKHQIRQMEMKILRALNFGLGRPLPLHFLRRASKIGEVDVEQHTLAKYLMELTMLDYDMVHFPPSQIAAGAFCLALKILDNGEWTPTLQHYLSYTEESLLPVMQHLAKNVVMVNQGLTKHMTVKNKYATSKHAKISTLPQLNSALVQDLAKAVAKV
Chain of Glycogen synthase kinase-3 beta (Homo sapiens) (P49841 whole entry, looked up): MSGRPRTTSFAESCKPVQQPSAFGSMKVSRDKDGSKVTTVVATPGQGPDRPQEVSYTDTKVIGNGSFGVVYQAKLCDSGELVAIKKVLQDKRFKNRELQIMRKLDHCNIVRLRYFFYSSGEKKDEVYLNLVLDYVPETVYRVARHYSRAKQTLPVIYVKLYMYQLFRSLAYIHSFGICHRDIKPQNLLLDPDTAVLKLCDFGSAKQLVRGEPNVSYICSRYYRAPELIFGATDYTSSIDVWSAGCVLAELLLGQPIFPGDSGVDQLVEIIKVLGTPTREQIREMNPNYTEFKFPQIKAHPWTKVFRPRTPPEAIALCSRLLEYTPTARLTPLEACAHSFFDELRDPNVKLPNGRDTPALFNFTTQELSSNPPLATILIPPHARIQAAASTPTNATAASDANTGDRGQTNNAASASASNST
Chain of Aurora kinase B (Homo sapiens) (Q96GD4 whole entry): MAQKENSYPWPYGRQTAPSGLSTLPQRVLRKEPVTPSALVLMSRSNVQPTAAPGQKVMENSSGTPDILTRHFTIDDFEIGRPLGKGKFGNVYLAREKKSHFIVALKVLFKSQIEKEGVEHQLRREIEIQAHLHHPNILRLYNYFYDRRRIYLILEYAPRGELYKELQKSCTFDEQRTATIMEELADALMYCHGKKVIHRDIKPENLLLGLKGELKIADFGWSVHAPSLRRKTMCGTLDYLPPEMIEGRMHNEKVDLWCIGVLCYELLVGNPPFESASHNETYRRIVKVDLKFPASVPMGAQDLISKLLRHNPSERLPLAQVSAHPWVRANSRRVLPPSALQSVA
Chain of Cyclin-dependent kinase 5/CDK5 activator 1 (Homo sapiens) (Q00535 whole entry): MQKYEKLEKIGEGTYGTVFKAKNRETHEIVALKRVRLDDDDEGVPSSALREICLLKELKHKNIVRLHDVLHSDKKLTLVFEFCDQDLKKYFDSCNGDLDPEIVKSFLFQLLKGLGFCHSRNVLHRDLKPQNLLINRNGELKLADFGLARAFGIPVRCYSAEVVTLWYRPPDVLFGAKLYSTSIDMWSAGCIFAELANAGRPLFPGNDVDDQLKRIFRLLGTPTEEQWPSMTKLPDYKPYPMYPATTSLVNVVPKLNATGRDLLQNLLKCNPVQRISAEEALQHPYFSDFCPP
Chain of Cyclin-dependent kinase 5/CDK5 activator 1 (Homo sapiens) (Q15078 99-307 partner limits assumed): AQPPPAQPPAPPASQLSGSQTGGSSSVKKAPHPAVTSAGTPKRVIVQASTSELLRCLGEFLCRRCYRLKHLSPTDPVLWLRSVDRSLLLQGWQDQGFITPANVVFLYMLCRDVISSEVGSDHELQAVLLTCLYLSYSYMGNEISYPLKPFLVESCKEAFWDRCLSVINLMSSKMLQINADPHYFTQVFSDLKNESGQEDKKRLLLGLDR
Chain of Epidermal growth factor receptor (Homo sapiens) (P00533 whole entry): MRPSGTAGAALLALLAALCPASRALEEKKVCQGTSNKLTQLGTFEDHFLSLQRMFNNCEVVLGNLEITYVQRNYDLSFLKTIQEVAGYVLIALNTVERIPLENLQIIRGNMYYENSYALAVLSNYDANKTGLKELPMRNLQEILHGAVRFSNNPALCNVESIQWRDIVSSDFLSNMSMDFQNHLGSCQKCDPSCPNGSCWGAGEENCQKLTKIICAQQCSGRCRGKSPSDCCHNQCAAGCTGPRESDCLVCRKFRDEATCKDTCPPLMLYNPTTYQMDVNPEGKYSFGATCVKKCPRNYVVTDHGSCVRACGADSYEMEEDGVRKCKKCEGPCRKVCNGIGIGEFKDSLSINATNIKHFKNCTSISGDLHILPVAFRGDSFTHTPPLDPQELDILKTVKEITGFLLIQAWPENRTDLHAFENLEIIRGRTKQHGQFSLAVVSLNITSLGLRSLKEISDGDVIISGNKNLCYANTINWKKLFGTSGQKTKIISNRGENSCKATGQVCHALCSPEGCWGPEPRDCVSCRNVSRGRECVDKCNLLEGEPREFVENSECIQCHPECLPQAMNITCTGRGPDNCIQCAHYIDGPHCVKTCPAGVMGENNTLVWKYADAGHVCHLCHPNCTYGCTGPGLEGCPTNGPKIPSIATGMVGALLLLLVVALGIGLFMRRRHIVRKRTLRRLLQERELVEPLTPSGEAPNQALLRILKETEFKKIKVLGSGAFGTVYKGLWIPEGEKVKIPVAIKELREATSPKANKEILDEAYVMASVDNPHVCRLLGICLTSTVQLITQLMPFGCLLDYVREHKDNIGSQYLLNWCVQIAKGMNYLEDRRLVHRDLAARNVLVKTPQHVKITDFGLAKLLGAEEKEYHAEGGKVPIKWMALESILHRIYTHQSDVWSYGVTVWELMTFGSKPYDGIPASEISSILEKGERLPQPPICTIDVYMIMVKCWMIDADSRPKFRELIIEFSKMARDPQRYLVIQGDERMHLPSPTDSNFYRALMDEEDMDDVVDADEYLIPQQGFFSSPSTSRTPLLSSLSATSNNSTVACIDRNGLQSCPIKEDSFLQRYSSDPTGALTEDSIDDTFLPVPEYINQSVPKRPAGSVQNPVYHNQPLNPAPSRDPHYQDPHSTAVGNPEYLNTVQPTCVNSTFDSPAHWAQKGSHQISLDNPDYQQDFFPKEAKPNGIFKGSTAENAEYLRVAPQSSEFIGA

In turn, `CC(=O)n1nc(NC(=O)c2ccccc2)c2c1CN(C(=O)N(C)C)C2` came in with an IC50 in the assay on HCT-116 [1] of 70.3 µM.
The same measure, in the same setting: as for `CC(=O)n1nc(NC(=O)c2ccccc2)c2c1CN(C(=O)c1ccc([N+](=O)[O-])cc1)C2`, the figure is 16.2 µM.
The same measure, in the same setting: as for `CCCCNC(=O)N1Cc2c(NC(=O)c3ccc(F)cc3)nn(C(=O)C3CC3)c2C1`, the figure is 23.2 µM.
Still for that read-out and setting: as for `CC(=O)n1nc(NC(=O)c2ccccc2)c2c1CN(S(=O)(=O)N(C)C)C2`, the figure is 35.3 µM; as for `O=C(Nc1n[nH]c2c1CN(C(=O)c1ccccc1)C2)c1ccc(F)cc1`, 3.19 µM.
Regarding `O=C(Nc1n[nH]c2c1CN(C(=O)c1ccccc1)C2)c1ccccc1`, the IC50 in the assay with HCT-116 [1] was determined as 6.4 µM.
Still for that read-out and setting: as for `CC(=O)n1nc(NC(=O)c2ccccc2)c2c1CN(C(=O)C1CCC(C)CC1)C2` (stereo not drawn), the figure is 12.2 µM; as for `O=C(Nc1nn(C(=O)c2ccccc2)c2c1CN(C(=O)c1ccccc1)C2)c1ccc(F)cc1`, 2.78 µM; as for `CC(=O)n1nc(NC(=O)c2ccccc2)c2c1CN(C(=O)c1cccc(Cl)c1)C2`, 17.4 µM.
The same measure, in the same setting: the result for `CC(=O)n1nc(NC(=O)c2ccccc2)c2c1CN(S(=O)(=O)c1ccc([N+](=O)[O-])cc1)C2` reads 22.3 µM; that for `CCCCNC(=O)N1Cc2c(NC(=O)Cc3ccccc3)nn(C(=O)c3ccccc3)c2C1`, 43.1 µM.
Still for that read-out and setting: as for `CC(=O)n1nc(NC(=O)c2ccccc2)c2c1CN(C(=O)CCl)C2`, the figure is 4.1 µM.
For the compound `CCC(=O)n1nc(NC(=O)c2ccccc2)c2c1CN(C(=O)c1ccccc1)C2`, the IC50 in the assay with HT-29 [2] was found to be 0.91 µM; with HCT-116 [1] it was 1.06 µM; in assay [3], 2.47 µM; in the assay with HepG2 [4], 0.86 µM; in the assay with MCF7 [5] it was 1.07 µM.
`CCCCNC(=O)N1Cc2c(NC(=O)c3ccc(C)cc3)nn(C(=O)c3ccccc3)c2C1` had an IC50 in the assay on HCT-116 [1] of 23.2 µM.
As to `COc1ccc(C(=O)Nc2nn(C(=O)C3CC3)c3c2CN(C(=O)c2ccccc2)C3)cc1`, the IC50 in the assay with HCT-116 [1] is 5.18 µM.
On the same count and under the same terms, the result for `CCCCNC(=O)N1Cc2c(NC(=O)c3ccc(OC)cc3)nn(C(=O)c3ccccc3)c2C1` reads 25.3 µM; that for `CC(=O)n1nc(NC(=O)c2ccccc2)c2c1CN(C(=O)c1ccc(-c3ccccc3)cc1)C2`, more than 90 µM; that for `CCCCNC(=O)N1Cc2c(NC(=O)c3ccc(F)cc3)nn(C(=O)c3ccccc3)c2C1`, 30.8 µM.
Same read-out and setting: as for `CCCCNC(=O)N1Cc2c(NC(=O)c3ccccc3)nn(C(=O)c3ccccc3)c2C1`, the figure is 7.47 µM.
Take `CC(=O)n1nc(NC(=O)c2ccccc2)c2c1CN(C(=O)c1ccccc1)C2`: the inhibition in assay [6] came out at 30%; in assay [7] it was 67%; in assay [8], 72%; in assay [9], 3%; in [10] it was 33%; in [12] it was 5%. Moreover, the inhibition in assay [14] was found to be 30%; in [16] it was 8%; in assay [17] it was 17%; in [22], 32%; in assay [23], 10%. The IC50 in the assay with HT-29 [2] turned out to be 0.92 µM; in the assay on A549 [13] it was 1.74 µM; with HCT-116 [1], 0.58 µM; in assay [3] it was 2.22 µM; in the assay on HT-1080 [21] it was 2.13 µM; in the assay on HepG2 [4], 0.81 µM. Moreover, the IC50 with MCF7 [5] was found to be 0.99 µM. Moreover, the “Ratio IC50” value with HT-29 [11] is listed as 4; in the assay with MCF7 [15], 4; in the assay with HT-1080 [18] it was 4; in the assay on HCT-116 [19], 28; with HepG2 [20], 4; in the assay on A549 [24], 4.
`CCCCNC(=O)N1Cc2c(NC(=O)c3ccc(C)cc3)nn(C(=O)C3CC3)c2C1` registered an IC50 in the assay on HCT-116 [1] of 17.6 µM.
On the same count and under the same terms, as for `O=C(Nc1nn(C(=O)Cc2ccccc2)c2c1CN(C(=O)c1ccccc1)C2)c1ccccc1`, the figure is 2.61 µM; as for `CCCCNC(=O)N1Cc2c(NC(=O)c3ccccc3)nn(C(=O)C3CC3)c2C1`, 3.47 µM.
As for `O=C(Nc1nn(C(=O)C2CC2)c2c1CN(C(=O)c1ccccc1)C2)c1ccccc1`, the IC50 in the assay with HCT-116 [1] was found to be 1.24 µM.
On the same count and under the same terms, as for `CC(=O)n1nc(NC(=O)c2ccccc2)c2c1CN(C(=O)c1cccc(F)c1)C2`, the figure is 21.9 µM.
Still for that read-out and setting: as for `O=C(Nc1nn(C(=O)C2CC2)c2c1CN(C(=O)c1ccccc1)C2)c1ccc(F)cc1`, the figure is 2.28 µM; as for `O=C(Nc1nn(C(=O)c2ccccc2)c2c1CN(C(=O)c1ccccc1)C2)c1ccccc1`, 1.4 µM.
The same measure, in the same setting: as for `COc1ccc(C(=O)Nc2nn(C(=O)c3ccccc3)c3c2CN(C(=O)c2ccccc2)C3)cc1`, the figure is 31.3 µM.
As to `CCCCNC(=O)N1Cc2c(NC(=O)Cc3ccccc3)nn(C(=O)C3CC3)c2C1`, the IC50 in the assay on HCT-116 [1] came out at 31.2 µM.
Consider `CC[C@H](CO)Nc1nc(NCc2ccccc2)c2ncn(C(C)C)c2n1` [SELICICLIB], for which the IC50 in the assay on HT-29 [2] was found to be 11.6 µM; in the assay on A549 [13] it was 14.1 µM; in the assay on HCT-116 [1] it was 16.4 µM; in [3] it was 20.5 µM; in the assay with HT-1080 [21] it was 9.62 µM; in the assay on HepG2 [4], 15.5 µM. Besides, the midpoint of inhibition in the assay on MCF7 [5], the IC50, lay at 12.2 µM.
In the assay on HCT-116 [1], `CCCCNC(=O)N1Cc2c(NC(=O)c3ccc(OC)cc3)nn(C(=O)C3CC3)c2C1` gave an IC50 of 65.5 µM.
Compound `CC(=O)n1nc(NC(=O)c2ccccc2)c2c1CN(C(=O)c1ccncc1)C2` yielded an IC50 in the assay with HCT-116 [1] of 10 µM.
Compound `COc1ccc(C(=O)Nc2n[nH]c3c2CN(C(=O)c2ccccc2)C3)cc1` displayed a half-maximal inhibitory concentration (IC50) in the assay on HCT-116 [1] of 13.6 µM.
The same measure, in the same setting: as for `CC(=O)n1nc(NC(=O)c2ccccc2)c2c1CN(C(=O)c1cccc([N+](=O)[O-])c1)C2`, the figure is 17.3 µM.
Still for that read-out and setting: as for `CC(C)C(=O)n1nc(NC(=O)c2ccccc2)c2c1CN(C(=O)c1ccccc1)C2`, the figure is 2.02 µM.

One may read the IC50 as the concentration that gives 50% inhibition. Low values mean greater potency in that assay, high ones weaker potency in that assay. Usually inhibition stands for how much of the control response was suppressed. Read a high inhibition as strong suppression.
